# Where “and” joins values, the source holds several entries; their conditions need not be identical. Equal values may be shown once.
# Test system: Long Evans rats
# Experiment: Behavioral satiety sequence (BSS)
# Type: in vivo, Long Evans rat
# Settings: Compound I-19 0.3 mg/kg
# Description: The Behavioural Satiety Sequence (BSS) is a technique used to evaluate physiological satiety. It is based on the expression of a sequence of behaviors including eating, grooming, locomotor activity, followed by resting, which are typically observed in rodents post-ingestion (Halford et al, 1998, Pharmacology Biochemistry and Behaviour. 61(2): 159-168). The BSS is a widely used model for determining the effects of novel pharmaceuticals on food intake and measures of satiety in rodents (Oliveira et al, 2011, Revista de Nutrição. 24(4) 619-628), and to discriminate the cause of reduced food intake following pharmacological manipulation. For example, treatments that may reduce food intake by non-specific mechanisms, such as immobility, malaise, and taste adulteration, will disrupt this sequence (Halford et al, 1998, Pharmacology Biochemistry and Behaviour. 61(2): 159-168).
# Specifically, 12 male Long-Evans rats were food-deprived for 22 h with a 2 h feeding period each day. Rats were trained to consume daily food during the 2 h period over 25 days. The testing phase was initiated once the rats consistently consumed 16-18 g of food per day with ≤10% variance in amount of feed consumed. Feeding took place in designated individual boxes in a quiet room separate from the housing room. Continuous remote monitoring via video camera during feeding was used to assess the BSS. Food consumption was measured by weighing the total available food before and after the 2 h feeding window, correcting for spillage. Lorcaserin (1 mg/kg) was included as a reference control (Higgins et al, 2011, Neuropsychopharmacology. 37(5): 1177-1191). Subjects were tested using a repeated-measures, Latin square design with 2-3 days wash-out between treatment cycles.
# On scheduled test days, animals were monitored remotely via video camera during the feeding access period. The occurrence of four mutually exclusive behaviors (eating/drinking, grooming, active, rest) were individually scored. Over the 2 h feeding period, behaviors were assessed every 30 seconds. Scores were compiled into 23 5 min timebins (timebin 24 was removed due to early removal of animals) and the frequency of each behavior within each timebin was calculated to determine a temporal frequency of each measure (Rodgers et al, 2010, Pharmacology Biochemistry and Behaviour. 97: 3-14). Percentage time was plotted for each behavioral sequence in each timebin to compare between treatment groups (Higgins et al, 2011, Neuropsychopharmacology. 37(5): 1177-1191).
# [1] = AVG of animals LT-1 to LT-12, 0-0.5 hours
# [2] = raw data per animal LT-1 to LT-12, 0-0.5 hours
# [3] = raw score per animal (LT-1 to LT-12)
structure (smiles),measurement,setting,value
Clc1ccc(C2(OCC3OCCO3)c3ccccc3C3=NCCN32)cc1 (stereo not drawn) [Compound I-19],"BSS scoring G (grooming), Time Bin 19 (90-95 TOTAL), AVG",AVG of animals LT-1 to LT-12,0.05
same,"BSS scoring G (grooming), Time Bin 20 (95-100 TOTAL), AVG",AVG of animals LT-1 to LT-12,0.05
same,"BSS scoring G (grooming), Time Bin 21 (100-105 TOTAL), AVG",AVG of animals LT-1 to LT-12,0.02
same,"BSS scoring G (grooming), Time Bin 22 (105-110 TOTAL), AVG",AVG of animals LT-1 to LT-12,0.01
same,"BSS scoring G (grooming), Time Bin 23 (110-115 TOTAL), AVG",AVG of animals LT-1 to LT-12,0.05
same,"BSS scoring G (grooming), Time Bin 24 (115-120 TOTAL), AVG",AVG of animals LT-1 to LT-12,0.04
same,"BSS scoring R (resting), Time Bin 19 (90-95 TOTAL), AVG",AVG of animals LT-1 to LT-12,0.11
same,"BSS scoring R (resting), Time Bin 20 (95-100 TOTAL), AVG",AVG of animals LT-1 to LT-12,0.09
same,"BSS scoring R (resting), Time Bin 21 (100-105 TOTAL), AVG",AVG of animals LT-1 to LT-12,0.19
same,"BSS scoring R (resting), Time Bin 22 (105-110 TOTAL), AVG",AVG of animals LT-1 to LT-12,0.21
same,"BSS scoring R (resting), Time Bin 23 (110-115 TOTAL), AVG",AVG of animals LT-1 to LT-12,0.16
same,"BSS scoring R (resting), Time Bin 24 (115-120 TOTAL), AVG",AVG of animals LT-1 to LT-12,0.21
same,"BSS scoring A (active), Time Bin 1 (0-5 TOTAL), AVG",[1],0.09
same,"BSS scoring A (active), Time Bin 2 (5-10 TOTAL), AVG",[1],0.02
same,"BSS scoring A (active), Time Bin 3 (10-15 TOTAL), AVG",[1],0.03
same,"BSS scoring A (active), Time Bin 4 (15-20 TOTAL), AVG",[1],0.08
same,"BSS scoring A (active), Time Bin 5 (20-25 TOTAL), AVG",[1],0.07
same,"BSS scoring A (active), Time Bin 6 (25-30 TOTAL), AVG",[1],0.08
same,"BSS scoring E (eating/drinking), Time Bin 1 (0-5 TOTAL), AVG",[1],0.88
same,"BSS scoring E (eating/drinking), Time Bin 2 (5-10 TOTAL), AVG",[1],0.95
same,"BSS scoring E (eating/drinking), Time Bin 3 (10-15 TOTAL), AVG",[1],0.94
same,"BSS scoring E (eating/drinking), Time Bin 4 (15-20 TOTAL), AVG",[1],0.90
same,"BSS scoring E (eating/drinking), Time Bin 5 (20-25 TOTAL), AVG",[1],0.88
same,"BSS scoring E (eating/drinking), Time Bin 6 (25-30 TOTAL), AVG",[1],0.88
same,"BSS scoring G (grooming), Time Bin 1 (0-5 TOTAL), AVG",[1],0.03
same,"BSS scoring G (grooming), Time Bin 2 (5-10 TOTAL), AVG",[1],0.03
same,"BSS scoring G (grooming), Time Bin 3 (10-15 TOTAL), AVG",[1],0.03
same,"BSS scoring G (grooming), Time Bin 4 (15-20 TOTAL), AVG",[1],0.01
same,"BSS scoring G (grooming), Time Bin 5 (20-25 TOTAL), AVG",[1],0.03
same,"BSS scoring G (grooming), Time Bin 6 (25-30 TOTAL), AVG",[1],0.02
same,"BSS scoring R (resting), Time Bin 1 (0-5 TOTAL), AVG",[1],0.01
same,"BSS scoring R (resting), Time Bin 2 (5-10 TOTAL), AVG",[1],0.00
same,"BSS scoring R (resting), Time Bin 3 (10-15 TOTAL), AVG",[1],0.00
same,"BSS scoring R (resting), Time Bin 4 (15-20 TOTAL), AVG",[1],0.02
same,"BSS scoring R (resting), Time Bin 5 (20-25 TOTAL), AVG",[1],0.03
same,"BSS scoring R (resting), Time Bin 6 (25-30 TOTAL), AVG",[1],0.03
same,"BSS scoring A (active), Time Bin 1 (0-5 TOTAL)",[2],1 (5×) and 0 (4×) and 2 (3×)
same,"BSS scoring A (active), Time Bin 2 (5-10 TOTAL)",[2],0 (10×) and 1 (2×)
same,"BSS scoring A (active), Time Bin 3 (10-15 TOTAL)",[2],0 (9×) and 2 and 1 (2×)
same,"BSS scoring A (active), Time Bin 4 (15-20 TOTAL)",[2],0 (7×) and 1 (3×) and 2 and 4
same,"BSS scoring A (active), Time Bin 5 (20-25 TOTAL)",[2],3 and 0 (7×) and 1 (3×) and 2
same,"BSS scoring A (active), Time Bin 6 (25-30 TOTAL)",[2],1 (3×) and 0 (6×) and 2 (3×)
same,"BSS scoring E (eating/drinking), Time Bin 1 (0-5 TOTAL)",[2],9 (6×) and 7 and 8 (3×) and 10 (2×)
same,"BSS scoring E (eating/drinking), Time Bin 2 (5-10 TOTAL)",[2],9 (6×) and 10 (6×)
same,"BSS scoring E (eating/drinking), Time Bin 3 (10-15 TOTAL)",[2],10 (6×) and 9 (5×) and 8
same,"BSS scoring E (eating/drinking), Time Bin 4 (15-20 TOTAL)",[2],10 (4×) and 9 (6×) and 8 and 6
same,"BSS scoring E (eating/drinking), Time Bin 5 (20-25 TOTAL)",[2],6 and 9 (6×) and 10 (3×) and 8 and 7
same,"BSS scoring E (eating/drinking), Time Bin 6 (25-30 TOTAL)",[2],9 (2×) and 10 (5×) and 7 and 8 (3×) and 6
same,"BSS scoring G (grooming), Time Bin 1 (0-5 TOTAL)",[2],0 (9×) and 1 (3×)
same,"BSS scoring G (grooming), Time Bin 2 (5-10 TOTAL)",[2],1 (4×) and 0 (8×)
same,"BSS scoring G (grooming), Time Bin 3 (10-15 TOTAL)",[2],0 (9×) and 1 (3×)
same,"BSS scoring G (grooming), Time Bin 4 (15-20 TOTAL)",[2],0 (11×) and 1
same,"BSS scoring G (grooming), Time Bin 5 (20-25 TOTAL)",[2],1 (4×) and 0 (8×)
same,"BSS scoring G (grooming), Time Bin 6 (25-30 TOTAL)",[2],0 (10×) and 1 (2×)
same,"BSS scoring R (resting), Time Bin 1 (0-5 TOTAL)",[2],0 (11×) and 1
same,"BSS scoring R (resting), Time Bin 2 (5-10 TOTAL)",[2],0
same,"BSS scoring R (resting), Time Bin 3 (10-15 TOTAL)",[2],0
same,"BSS scoring R (resting), Time Bin 4 (15-20 TOTAL)",[2],0 (10×) and 1 (2×)
same,"BSS scoring R (resting), Time Bin 5 (20-25 TOTAL)",[2],0 (10×) and 1 and 2
same,"BSS scoring R (resting), Time Bin 6 (25-30 TOTAL)",[2],0 (10×) and 3 and 1
same,"BSS scoring A (active), Time Bin 19 (90-95 TOTAL)",[3],0 (4×) and 5 (2×) and 2 (2×) and 6 and 3 and 1 (2×)
same,"BSS scoring A (active), Time Bin 20 (95-100 TOTAL)",[3],3 (2×) and 2 (2×) and 0 (4×) and 1 (2×) and 4 (2×)
same,"BSS scoring A (active), Time Bin 21 (100-105 TOTAL)",[3],0 (7×) and 1 (3×) and 2 (2×)
same,"BSS scoring A (active), Time Bin 22 (105-110 TOTAL)",[3],0 (8×) and 4 and 1 and 2 (2×)
same,"BSS scoring A (active), Time Bin 23 (110-115 TOTAL)",[3],4 (2×) and 3 and 1 and 0 (4×) and 6 (2×) and 2 and 7
same,"BSS scoring A (active), Time Bin 24 (115-120 TOTAL)",[3],0 (6×) and 3 (2×) and 5 and 1 (2×) and 4
same,"BSS scoring E (eating/drinking), Time Bin 19 (90-95 TOTAL)",[3],9 (5×) and 4 (2×) and 0 and 2 and 7 and 8 and 5
same,"BSS scoring E (eating/drinking), Time Bin 20 (95-100 TOTAL)",[3],7 and 6 (2×) and 10 (3×) and 9 and 8 (2×) and 1 and 4 (2×)
same,"BSS scoring E (eating/drinking), Time Bin 21 (100-105 TOTAL)",[3],10 (4×) and 9 (2×) and 6 and 7 and 0 and 8 and 5 and 4
same,"BSS scoring E (eating/drinking), Time Bin 22 (105-110 TOTAL)",[3],10 (6×) and 0 (2×) and 3 and 7 and 8 and 5
same,"BSS scoring E (eating/drinking), Time Bin 23 (110-115 TOTAL)",[3],5 (2×) and 6 and 9 (2×) and 1 (2×) and 4 (2×) and 0 and 8 and 10
same,"BSS scoring E (eating/drinking), Time Bin 24 (115-120 TOTAL)",[3],0 (3×) and 6 (2×) and 10 and 4 (2×) and 2 and 8 (2×) and 5
same,"BSS scoring G (grooming), Time Bin 19 (90-95 TOTAL)",[3],0 (8×) and 1 (3×) and 3
same,"BSS scoring G (grooming), Time Bin 20 (95-100 TOTAL)",[3],0 (8×) and 1 (2×) and 2 (2×)
same,"BSS scoring G (grooming), Time Bin 21 (100-105 TOTAL)",[3],0 (10×) and 1 (2×)
